Results from PMC11766601, “A Comparative Study of the In Vitro Intestinal Permeability of Pinnatoxins and Portimine” (Marine Drugs, 2025).

Tests used:
Caco-2 cells = test: Trans-epithelial electrical resistance (TEER) of differentiated Caco-2 monolayers; format: cell-based, human; details: 24 h
Description: (§1) All experiments were performed with human intestinal Caco-2 cells (ATCC-HTB37), acquired from the American Type Culture Collection (ATCC; Manassas, VA, USA). Caco-2 cells originate from a colorectal adenocarcinoma, but upon reaching confluence, they differentiate and express the characteristics of enterocytes. The cells were cultivated in minimum essential medium containing 5.5 mM D-glucose, Earle’s salts, and 2 mM L-alanyl-glutamine (MEM GlutaMAX™, Gibco, Bromont, QC, Canada) supplemented with 10% fetal bovine serum (FBS, Gibco), 1% non-essential amino acids, 50 U/mL penicillin, and 50 μg/mL streptomycin (Gibco) under humidified conditions (37 °C, 5% CO2, 95% humidity). The cells were grown for 3–4 days up to 80% confluence before trypsinization and sub-culture. For the experiments, the cells were seeded in TRANSWELL® plates (12 wells, 0.4 µm pore size; Costar®, Corning Incorporated, Corning, NY, USA) at a density of 90,000 cells/cm^2. Prior to toxin treatment, highly differentiated Caco-2 cells were obtained after 24–26 days of culture, with medium renewal every 2–3 days. Passage numbers between 30 and 40 were used for experiments.
(§2) PnTX-A, PnTX-G, PnTX-E, PnTX-H, and portimine stock solutions were prepared in methanol, while PnTX-F was provided in acetonitrile/acetic acid (50%/0.1%). For each toxin, the cells were incubated at 8, 16, and 32 ng/mL (diluted in HBSS) for 2 h, 6 h, and 24 h, with a final volume of 1.5% solvent. The controls were incubated with the cell culture medium containing the respective solvent of the toxin at 1.5%. Each experiment included three biological replicates. Two to three independent experiments were conducted.
Epithelial integrity was examined by measuring the TEER between the apical and basolateral compartments. After rinsing with a HBSS solution (HBSS, HEPES 5 mM, pH 7.4), the Caco-2 monolayers were equilibrated for 30 min at 37 °C with 300 and 1000 µL HBSS in the apical (A) and basolateral (B) chambers, respectively. Then, the content of the apical compartment was replaced with 500 µL HBSS-containing toxins. TEER was quantified with a Millipore Millicell Electrical Resistance System (ERS Millipore, EMD Millipore Corporation, Burlington, MA, USA). The mean value of two measurements per well before and after the treatment was calculated and multiplied by the surface of the insert to obtain Ω × cm^2. After blank subtraction, the results were presented as a percentage of the solvent control.

Caco-2 cell monolayers [1] = test: Lucifer Yellow paracellular permeability (barrier integrity); format: cell-based, human; details: 24 h
Description: as §1, §2
For the assay, both compartments of the insert system were washed with Hank’s balanced salt solution (HBSS). Then, 0.5 mL of 0.1 mg/mL Lucifer Yellow in HBSS buffer and 1 mL of pure HBSS buffer were added to the apical and basolateral compartments, respectively. After a 2 h incubation at 37 °C, the media of the basolateral compartments were collected and the fluorescence of each compartment was measured in triplicate (excitation: 405 nm, emission: 520 nm) with a FLUOstar Optima microplate reader (BMG Labtech, Ortenberg, Germany). After subtraction of the blank (HBSS), the permeability of the […] was calculated against the value obtained for pure LY and reported as % permeability.

[2] = Toxin crossing and apparent permeability across Caco-2 cell monolayers (A to B), LC-MS/MS; format: in vitro ADME, human; details: human, Caco-2, A to B; for Papp at 2 h, 8 ng/mL / Papp at 6 h, 8 ng/mL: loaded 8 ng/mL; for Papp at 2 h, 16 ng/mL / Papp at 6 h, 16 ng/mL: loaded 16 ng/mL; for Papp at 2 h, 32 ng/mL / Papp at 6 h, 32 ng/mL: loaded 32 ng/mL
Description: as §1, §2
(§3) The apical and basolateral compartments were collected after 2, 6, and 24 h treatment time. Parts of the solutions that were used to load the apical compartments were also stored (T0) to take into account the real concentration and not the estimated concentration. All the samples were stored at −20 °C until LC/MS analysis.
(§4) The LC-MS/MS analysis of toxins was implemented for the quantitative analysis of toxins. The LC system was an Agilent 1200 (Agilent Technologies, Santa Clara, CA, USA). The chromatographic separation was performed using a column Hypersil GOLD® C18 50 mm × 2.1 mm, 1.9 μm (Thermo Scientific, Waltham, MA, USA). Eluent A consisted of water, and eluent B of acetonitrile/water at a ratio of 95:5 (v/v), with both eluents containing 50 mM formic acid and 2 mM ammonium formate. The LC flow rate was 0.4 mL/min, and the gradient was programmed as follows: 10% B held for 0.5 min, 10–90% B in 5 min, 90% B held for 1 min, 90–10% B in 0.5 min, and 10% B held for 3.0 min, for a total run time of 10 min. The injection volume was 5 μL, while the column temperature was maintained at 40 °C. The column effluent was transferred via a divert valve (Valco Instruments Co., Inc., Houston, TX, USA), either to the mass spectrometer (between 1.7 and 5.5 min) or to waste.
(§5) The detection system was constructed with an API 4000 triple quadrupole mass spectrometer (Sciex, Framingham, MA, USA) equipped with an ElectroSpray Ionization (ESI) source (Turbo V). The mass spectrometer was operated in positive ESI mode. The source temperature was set at 600 °C, and the spray voltage was 5500 V. Air was used as a nebulizer gas and an auxiliary gas, with a gas pressure of 40 and 60 psi, respectively. Meanwhile, the curtain gas and collision gas were nitrogen, with a gas pressure of 15 and 8 psi, respectively. The mass spectrometer was operated in multiple reaction monitoring mode (MRM). One transition was used for quantification (Q) and another as a qualifier transition (q). A mass resolution of 0.7 Da full width at half maximum (FWHD) was set on the first (Q1) and the third (Q3) quadrupoles. Instrument control and data were handled with Analyst software version 1.5.1 (Sciex, Framingham, MA, USA).
(§6) The portimine and PnTX retention times varied between 2.7 and 4.4 min (Figure S1). […]

Caco-2 cell monolayers [3] = test: as above; format: in vitro ADME, human; details: for % theoretical amount of toxin crossing the Caco-2 cell monolayers: relative to theoretical loaded concentration; for Percentage of toxin crossing the Caco-2 cell monolayers: A to B, relative to quantified T0; for permeability / oral bioavailability class from Caco-2 Papp: threshold Papp > 1.5 × 10^−6 cm·s^−1 = highly penetrative
Description: as §1, §2, §3, §4, §5, §6

mice = details: cited from earlier work
rats = system: rats; design: method as in PMID 34380275; details: six hours after gavage of rats with [H^3] 100 µg/kg; liver, kidney, spleen, brain regions; cited from earlier work
[4] = design: method as in PMID 32246951; details: Anses 2020; cited from earlier work

| Structure (SMILES) | Papp at 2 h, 8 ng/mL [2] [×10⁻⁶ cm/s] | Papp at 2 h, 16 ng/mL [2] [×10⁻⁶ cm/s] | Papp at 2 h, 32 ng/mL [2] [×10⁻⁶ cm/s] | Papp at 6 h, 8 ng/mL [2] [×10⁻⁶ cm/s] | Papp at 6 h, 16 ng/mL [2] [×10⁻⁶ cm/s] | Papp at 6 h, 32 ng/mL [2] [×10⁻⁶ cm/s] | % theoretical amount of toxin crossing the Caco-2 cell monolayers (Caco-2 cell monolayers [3]; 2 h, 8 ng/mL) [%] | % theoretical amount of toxin crossing the Caco-2 cell monolayers (Caco-2 cell monolayers [3]; 2 h, 16 ng/mL) [%] | % theoretical amount of toxin crossing the Caco-2 cell monolayers (Caco-2 cell monolayers [3]; 2 h, 32 ng/mL) [%] | Percentage of toxin crossing the Caco-2 cell monolayers (Caco-2 cell monolayers [3]; 2 h, loaded 8 ng/mL) [%] | Percentage of toxin crossing the Caco-2 cell monolayers (Caco-2 cell monolayers [3]; 2 h, loaded 16 ng/mL) [%] | Percentage of toxin crossing the Caco-2 cell monolayers (Caco-2 cell monolayers [3]; 2 h, loaded 32 ng/mL) [%] | % theoretical amount of toxin crossing the Caco-2 cell monolayers (Caco-2 cell monolayers [3]; 6 h, 8 ng/mL) [%] | % theoretical amount of toxin crossing the Caco-2 cell monolayers (Caco-2 cell monolayers [3]; 6 h, 16 ng/mL) [%] | % theoretical amount of toxin crossing the Caco-2 cell monolayers (Caco-2 cell monolayers [3]; 6 h, 32 ng/mL) [%] | Percentage of toxin crossing the Caco-2 cell monolayers (Caco-2 cell monolayers [3]; 6 h, loaded 8 ng/mL) [%] | Percentage of toxin crossing the Caco-2 cell monolayers (Caco-2 cell monolayers [3]; 6 h, loaded 16 ng/mL) [%] | Percentage of toxin crossing the Caco-2 cell monolayers (Caco-2 cell monolayers [3]; 6 h, loaded 32 ng/mL) [%] | permeability / oral bioavailability class from Caco-2 Papp (Caco-2 cell monolayers [3]) | further results |
| --- | --- | --- | --- | --- | --- | --- | --- | --- | --- | --- | --- | --- | --- | --- | --- | --- | --- | --- | --- | --- |
| C=C1CCCC2=NCC(C)C(C)CC23CCC(C2CCC(=O)O2)=CC3C2OC3(CC(C)CC2O3)CC2OC3(CCC4(OC(CCC4(C)O)C1)O3)CC(C)C2O (stereo not shown) [PnTX-F] | 8.95 ± 1.69 | 6.28 ± 2.37 | 6.94 ± 2.03 | 16.1 ± 0.24 | 11.4 ± 2.88 | 13.7 ± 1.09 | 4.75 ± 0.35 | 4.00 ± 0.00 | 5.03 ± 0.31 | 14.43 ± 2.73 | 10.12 ± 3.82 | 11.20 ± 3.27 | 8.75 ± 2.12 | 7.44 ± 0.97 | 10.31 ± 2.83 | 26.00 ± 0.52 | 18.36 ± 4.64 | 22.09 ± 1.76 | high oral bioavailability | TEER (Caco-2 cells; 32 ng/mL): 67 ± 5.6 % of the control value; effect on TEER (Caco-2 cells; 8 and 16 ng/mL): slight non-significant decrease; effect on LY permeability (Caco-2 cell monolayers [1]; all concentrations (8, 16, 32 ng/mL)): significant increase; percentage of toxin crossing (text summary over 8-32 ng/mL) (Caco-2 cell monolayers [3]; 2 h): around 12%; macroscopic lesions on the intestine, other organs and tissues (mice; mice, oral exposure): no macroscopic lesions |
| C=CC1=CC2C3OC4(CC5CCCC6(CCC7(OC(CCC7(C)O)CC(=C)CCCC7=NCC(C)C(C)CC72CC1)O6)O5)CC(C)C(O)C3O4 (stereo not shown) [PnTX-G, Pinnatoxin G] | 9.69 ± 3.25 | 14.4 ± 2.7 | 14.3 ± 3.45 | 21.4 ± 5.82 | 22.8 ± 3.26 | 26.9 ± 3.82 | 6.83 ± 1.04 | 8.37 ± 1.19 | 8.64 ± 0.53 | 15.62 ± 5.24 | 23.32 ± 4.36 | 23.07 ± 5.56 | 15.17 ± 0.58 | 13.25 ± 1.30 | 16.58 ± 2.86 | 34.43 ± 9.39 | 36.83 ± 5.26 | 43.41 ± 6.15 | high oral bioavailability | effect on TEER (Caco-2 cells; 16 and 32 ng/mL): slight, but non-significant, decrease; effect on passage of LY (Caco-2 cell monolayers [1]): lower effect; effect on the small intestine (mice; mice orally treated with 300 μg/kg and above, villous atrophy, focal degeneration of epithelial cells): alteration of the small intestine; onset of toxicity after oral exposure (mice; oral exposure to a certain dose): within one hour; tissue distribution of radioactivity (rats): radioactivity was distributed in the peripheral organs; provisional acute health-based guidance value [4]: 0.13 μg PnTX-G/kg body weight per day |
